Oligonucleotides are given in HELM: sugar(base)linkage, 5' to 3'; d 2'-deoxyribose, r ribose, m 2'-O-methylribose, p phosphate. ss, as = sense and antisense strand

The values below come from the OligoGym collection.
Further: test concentration or dose not given here.

The target of the data set is TMEM63B. Description: reporter assay of Huesken 2005. The note with it: siRNA. On the technique in general: Reporter assays use an easily measured gene product as a stand-in for the process of interest.
The substance “RNA1{r(C)p.r(A)p.r(G)p.r(C)p.r(C)p.r(A)p.r(U)p.r(C)p.r(A)p.r(U)p.r(C)p.r(A)p.r(U)p.r(C)p.r(A)p.r(C)p.r(C)p.r(A)p.r(C)p.d(T)p.d(T)}|RNA2{r(G)p.r(U)p.r(G)p.r(G)p.r(U)p.r(G)p.r(A)p.r(U)p.r(G)p.r(A)p.r(U)p.r(G)p.r(A)p.r(U)p.r(G)p.r(G)p.r(C)p.r(U)p.r(G)p.d(G)p.d(A)}$$$RNA1{StrandType:ss}|RNA2{StrandType:as}$” showed a normalised inhibition (eCFP-eYFP dual reporter) of 74.3%. As for “RNA1{r(C)p.r(G)p.r(A)p.r(U)p.r(G)p.r(C)p.r(A)p.r(G)p.r(A)p.r(G)p.r(A)p.r(G)p.r(G)p.r(A)p.r(A)p.r(G)p.r(A)p.r(A)p.r(G)p.d(T)p.d(T)}|RNA2{r(C)p.r(U)p.r(U)p.r(C)p.r(U)p.r(U)p.r(C)p.r(C)p.r(U)p.r(C)p.r(U)p.r(C)p.r(U)p.r(G)p.r(C)p.r(A)p.r(U)p.r(C)p.r(G)p.d(A)p.d(G)}$$$RNA1{StrandType:ss}|RNA2{StrandType:as}$”, the figure is 56.4%; as for “RNA1{r(C)p.r(U)p.r(G)p.r(C)p.r(U)p.r(G)p.r(A)p.r(A)p.r(G)p.r(C)p.r(A)p.r(C)p.r(C)p.r(U)p.r(G)p.r(G)p.r(U)p.r(A)p.r(G)p.d(T)p.d(T)}|RNA2{r(C)p.r(U)p.r(A)p.r(C)p.r(C)p.r(A)p.r(G)p.r(G)p.r(U)p.r(G)p.r(C)p.r(U)p.r(U)p.r(C)p.r(A)p.r(G)p.r(C)p.r(A)p.r(G)p.d(C)p.d(A)}$$$RNA1{StrandType:ss}|RNA2{StrandType:as}$”, 75%.

As to “RNA1{r(G)p.r(G)p.r(G)p.r(C)p.r(U)p.r(C)p.r(C)p.r(U)p.r(G)p.r(G)p.r(G)p.r(A)p.r(G)p.r(C)p.r(U)p.r(C)p.r(A)p.r(G)p.r(G)p.d(T)p.d(T)}|RNA2{r(C)p.r(C)p.r(U)p.r(G)p.r(A)p.r(G)p.r(C)p.r(U)p.r(C)p.r(C)p.r(C)p.r(A)p.r(G)p.r(G)p.r(A)p.r(G)p.r(C)p.r(C)p.r(C)p.d(C)p.d(A)}$$$RNA1{StrandType:ss}|RNA2{StrandType:as}$”, the normalised inhibition (eCFP-eYFP dual reporter) is 36.3%. “RNA1{r(C)p.r(U)p.r(G)p.r(G)p.r(U)p.r(C)p.r(A)p.r(U)p.r(C)p.r(A)p.r(C)p.r(C)p.r(A)p.r(U)p.r(C)p.r(G)p.r(U)p.r(C)p.r(A)p.d(T)p.d(T)}|RNA2{r(U)p.r(G)p.r(A)p.r(C)p.r(G)p.r(A)p.r(U)p.r(G)p.r(G)p.r(U)p.r(G)p.r(A)p.r(U)p.r(G)p.r(A)p.r(C)p.r(C)p.r(A)p.r(G)p.d(G)p.d(A)}$$$RNA1{StrandType:ss}|RNA2{StrandType:as}$” displayed a normalised inhibition (eCFP-eYFP dual reporter) of 67%.

With “RNA1{r(C)p.r(C)p.r(U)p.r(A)p.r(C)p.r(A)p.r(G)p.r(C)p.r(U)p.r(U)p.r(U)p.r(G)p.r(G)p.r(G)p.r(A)p.r(G)p.r(A)p.r(A)p.r(C)p.d(T)p.d(T)}|RNA2{r(G)p.r(U)p.r(U)p.r(C)p.r(U)p.r(C)p.r(C)p.r(C)p.r(A)p.r(A)p.r(A)p.r(G)p.r(C)p.r(U)p.r(G)p.r(U)p.r(A)p.r(G)p.r(G)p.d(C)p.d(A)}$$$RNA1{StrandType:ss}|RNA2{StrandType:as}$”, the normalised inhibition (eCFP-eYFP dual reporter) was found to be 81.9%.

The substance “RNA1{r(U)p.r(C)p.r(A)p.r(C)p.r(C)p.r(U)p.r(G)p.r(C)p.r(C)p.r(C)p.r(C)p.r(A)p.r(U)p.r(C)p.r(A)p.r(U)p.r(C)p.r(G)p.r(U)p.d(T)p.d(T)}|RNA2{r(A)p.r(C)p.r(G)p.r(A)p.r(U)p.r(G)p.r(A)p.r(U)p.r(G)p.r(G)p.r(G)p.r(G)p.r(C)p.r(A)p.r(G)p.r(G)p.r(U)p.r(G)p.r(A)p.d(T)p.d(A)}$$$RNA1{StrandType:ss}|RNA2{StrandType:as}$” displayed a normalised inhibition (eCFP-eYFP dual reporter) of 73%.

On to “RNA1{r(C)p.r(U)p.r(U)p.r(C)p.r(C)p.r(U)p.r(G)p.r(U)p.r(A)p.r(U)p.r(C)p.r(U)p.r(G)p.r(C)p.r(U)p.r(G)p.r(C)p.r(U)p.r(C)p.d(T)p.d(T)}|RNA2{r(G)p.r(A)p.r(G)p.r(C)p.r(A)p.r(G)p.r(C)p.r(A)p.r(G)p.r(A)p.r(U)p.r(A)p.r(C)p.r(A)p.r(G)p.r(G)p.r(A)p.r(A)p.r(G)p.d(G)p.d(C)}$$$RNA1{StrandType:ss}|RNA2{StrandType:as}$”, for which the normalised inhibition (eCFP-eYFP dual reporter) stood at 75.8%. For “RNA1{r(G)p.r(C)p.r(G)p.r(U)p.r(C)p.r(U)p.r(U)p.r(C)p.r(A)p.r(C)p.r(G)p.r(G)p.r(U)p.r(G)p.r(G)p.r(U)p.r(C)p.r(A)p.r(U)p.d(T)p.d(T)}|RNA2{r(A)p.r(U)p.r(G)p.r(A)p.r(C)p.r(C)p.r(A)p.r(C)p.r(C)p.r(G)p.r(U)p.r(G)p.r(A)p.r(A)p.r(G)p.r(A)p.r(C)p.r(G)p.r(C)p.d(A)p.d(C)}$$$RNA1{StrandType:ss}|RNA2{StrandType:as}$”, the normalised inhibition (eCFP-eYFP dual reporter) was 75.9%. Substance “RNA1{r(U)p.r(C)p.r(C)p.r(U)p.r(G)p.r(G)p.r(G)p.r(A)p.r(G)p.r(C)p.r(U)p.r(C)p.r(A)p.r(G)p.r(G)p.r(G)p.r(G)p.r(A)p.r(U)p.d(T)p.d(T)}|RNA2{r(A)p.r(U)p.r(C)p.r(C)p.r(C)p.r(C)p.r(U)p.r(G)p.r(A)p.r(G)p.r(C)p.r(U)p.r(C)p.r(C)p.r(C)p.r(A)p.r(G)p.r(G)p.r(A)p.d(G)p.d(C)}$$$RNA1{StrandType:ss}|RNA2{StrandType:as}$” returned a normalised inhibition (eCFP-eYFP dual reporter) of 52%.

As for “RNA1{r(C)p.r(U)p.r(U)p.r(C)p.r(U)p.r(U)p.r(U)p.r(U)p.r(C)p.r(C)p.r(A)p.r(C)p.r(C)p.r(A)p.r(U)p.r(G)p.r(C)p.r(G)p.r(C)p.d(T)p.d(T)}|RNA2{r(G)p.r(C)p.r(G)p.r(C)p.r(A)p.r(U)p.r(G)p.r(G)p.r(U)p.r(G)p.r(G)p.r(A)p.r(A)p.r(A)p.r(A)p.r(G)p.r(A)p.r(A)p.r(G)p.d(A)p.d(G)}$$$RNA1{StrandType:ss}|RNA2{StrandType:as}$”, the normalised inhibition (eCFP-eYFP dual reporter) was found to be 39.7%. “RNA1{r(G)p.r(C)p.r(U)p.r(U)p.r(U)p.r(G)p.r(G)p.r(G)p.r(A)p.r(G)p.r(A)p.r(A)p.r(C)p.r(C)p.r(A)p.r(C)p.r(C)p.r(A)p.r(U)p.d(T)p.d(T)}|RNA2{r(A)p.r(U)p.r(G)p.r(G)p.r(U)p.r(G)p.r(G)p.r(U)p.r(U)p.r(C)p.r(U)p.r(C)p.r(C)p.r(C)p.r(A)p.r(A)p.r(A)p.r(G)p.r(C)p.d(T)p.d(G)}$$$RNA1{StrandType:ss}|RNA2{StrandType:as}$” showed a normalised inhibition (eCFP-eYFP dual reporter) of 75.8%. “RNA1{r(G)p.r(G)p.r(G)p.r(A)p.r(U)p.r(G)p.r(G)p.r(G)p.r(G)p.r(C)p.r(U)p.r(C)p.r(C)p.r(U)p.r(G)p.r(G)p.r(G)p.r(A)p.r(G)p.d(T)p.d(T)}|RNA2{r(C)p.r(U)p.r(C)p.r(C)p.r(C)p.r(A)p.r(G)p.r(G)p.r(A)p.r(G)p.r(C)p.r(C)p.r(C)p.r(C)p.r(A)p.r(U)p.r(C)p.r(C)p.r(C)p.d(C)p.d(A)}$$$RNA1{StrandType:ss}|RNA2{StrandType:as}$” registered a normalised inhibition (eCFP-eYFP dual reporter) of 43.3%. With “RNA1{r(A)p.r(A)p.r(C)p.r(G)p.r(U)p.r(G)p.r(C)p.r(C)p.r(U)p.r(A)p.r(C)p.r(C)p.r(A)p.r(U)p.r(G)p.r(A)p.r(U)p.r(C)p.r(A)p.d(T)p.d(T)}|RNA2{r(U)p.r(G)p.r(A)p.r(U)p.r(C)p.r(A)p.r(U)p.r(G)p.r(G)p.r(U)p.r(A)p.r(G)p.r(G)p.r(C)p.r(A)p.r(C)p.r(G)p.r(U)p.r(U)p.d(C)p.d(T)}$$$RNA1{StrandType:ss}|RNA2{StrandType:as}$” the figure was 80.1%.
